{"source": "ChEMBL document CHEMBL1255275", "about": "“Drug-regulated expression of Plasmodium falciparum P-glycoprotein homologue 1: a putative role for nuclear receptors” (Antimicrob Agents Chemother, 2008)", "key": {"Plasmodium falciparum [1]": {"test_system": "Plasmodium falciparum", "assay": "Increase in PfCRT expression in chloroquine-resistant Plasmodium falciparum R1H6/2 by Western blot relative to untreated control", "format": "functional, organism-based"}, "Plasmodium falciparum [2]": {"test_system": "Plasmodium falciparum", "assay": "Increase in PfCRT expression chloroquine-sensitive Plasmodium falciparum K1Hf by Western blot relative to untreated control", "format": "functional, organism-based"}, "Plasmodium falciparum [3]": {"test_system": "Plasmodium falciparum", "assay": "Increase in PfCRT expression in chloroquine-sensitive Plasmodium falciparum K1AM by Western blot relative to untreated control", "format": "functional, organism-based"}, "Plasmodium falciparum [4]": {"test_system": "Plasmodium falciparum", "assay": "Increase in Pgh1 expression in chloroquine-resistant Plasmodium falciparum R1H6/2 by Western blot relative to untreated control", "format": "functional"}, "Plasmodium falciparum [5]": {"test_system": "Plasmodium falciparum", "assay": "Increase in Pgh1 expression in chloroquine-sensitive Plasmodium falciparum K1AM by Western blot relative to untreated control", "format": "functional"}, "Plasmodium falciparum [6]": {"test_system": "Plasmodium falciparum", "assay": "Increase in Pgh1 expression chloroquine-sensitive Plasmodium falciparum K1Hf by Western blot relative to untreated control", "format": "functional"}}, "note": "The source made the active and inactive calls. No cut-off for these calls is given here."}
{"smiles": "CCC1(c2ccccc2)C(=O)NC(=O)NC1=O", "note": "[PHENOBARBITAL]", "values": [{"measurement": "Activity", "setting": "Plasmodium falciparum [1]", "value": "inactive"}, {"measurement": "Activity", "setting": "Plasmodium falciparum [2]", "value": "inactive"}, {"measurement": "Activity", "setting": "Plasmodium falciparum [3]", "value": "inactive"}, {"measurement": "fold change (FC)", "setting": "Plasmodium falciparum [4]", "value": 6.4}, {"measurement": "fold change (FC)", "setting": "Plasmodium falciparum [5]", "value": 4.7}, {"measurement": "fold change (FC)", "setting": "Plasmodium falciparum [6]", "value": 5.4}]}
